Source: US11459410B2, “High-purity amphipathic arylsulfonic acid amine salt vinyl monomer and copolymer thereof” (TOSOH FINECHEM CORPORATION, priority 2017, dated 2022)
Where two headings read alike, the source gives them in different places.

Experiments:
[1] = Evaluation 1 (Solubility): saturation solubility in water, THF, NMP and toluene; format: physicochemical; settings: for Solubility NMP: N-methylpyrrolidone; for Solubility NMP / Solubility THF / Solubility Toluene / Solubility Water: 25° C., saturation solubility; for Solubility THF: tetrahydrofuran
Protocol: 2 g each of water, tetrahydrofuran (THF), N-methylpyrrolidone (NMP), and toluene were added to glass screw tube bottles. Small portions of styrenesulfonic acid salts were added thereto at 25° C., and the solubilities thereof were observed while shaking the bottles by hand. In each case, the point at which the solid started to remain was determined to be saturation solubility, and the solubility was calculated by the following Equation. Solubility (wt %)=A/(S+A)×100
A: Weight of amine added (g)

[2] = Evaluation 2 (Storage Stability): accelerated test of polymerization stability of the solid at 60° C.; settings: for Comprehensive Evaluation (storage stability): sealed bottle, one week
Protocol: 2.0 g of the solid of styrenesulfonic acid salt was added to glass screw tube bottle, and the bottle was sealed with a plug. Then, the bottle was placed in a box dryer at 60° C., and an accelerated test of polymerization stability was performed.
Sampling was performed every other day for a total of one week to check properties, odor, pH change, and the progress of polymerization by heat.
TOASS was dissolved in dimethylformamide and subjected to GPC analysis using a 10 mmol/L lithium bromide dimethylformamide solution as eluent.

| Compound | Solubility NMP [1] | Solubility (in words) ([1]; overall, Evaluation 1) | Solubility THF [1] | Solubility Toluene [1] | Solubility Water ([1]; water) | Solubility in water (in words) [1] | Monomer (area %), after one week ([2]; GPC, solid, 60° C.) [area %] | Odor, after one week ([2]; solid, 60° C.) | Properties on the first day of evaluation ([2]; solid, 60° C., first day) | Solubility in an organic solvent (in words) ([1]; organic solvent) | Solubility in water (in words) ([1]; water) | Monomer (area %), before start of reaction ([2]; GPC, before start of the 60° C. test) [area %] | Odor, before start of reaction ([2]; before start of the 60° C. test) | Comprehensive Evaluation (storage stability) ([2]; solid, 60° C.) | Solubility (in words) [1] |
| --- | --- | --- | --- | --- | --- | --- | --- | --- | --- | --- | --- | --- | --- | --- | --- |
| parastyrenesulfonic acid dicyclohexylamine salt [DCHASS, reference compound] | ∘ (Easily soluble (10 wt % or more)) | did not have sufficient solubility | x (Insoluble (1 wt % or less)) | x (Insoluble (1 wt % or less)) | x (Insoluble (1 wt % or less)) |  |  |  |  |  |  |  |  |  |  |
| C=Cc1ccc(S(=O)(=O)O)cc1.CCCCCCCCN(CCCCCCCC)CCCCCCCC [TOASS, parastyrenesulfonic acid n-trioctylamine, reference compound] |  |  |  |  |  | poor water solubility | 0.00 | Yes | yellow translucent plastic form |  |  |  |  |  |  |
| parastyrenesulfonic acid N,N-dimethylcyclohexylamine salt [CHASS] | ∘ (Easily soluble (10 wt % or more)) |  | ∘ (Easily soluble (10 wt % or more)) | Δ (Soluble (1 to 10 wt %)) | ∘ (Easily soluble (10 wt % or more)) |  | 97.24 | No |  | sufficient solubility in an organic solvent | soluble in water | 100 | No | ∘ |  |
| parastyrenesulfonic acid N,N-diisopropylethylamine salt [DIPEASS] | ∘ (Easily soluble (10 wt % or more)) |  | Δ (Soluble (1 to 10 wt %)) | Δ (Soluble (1 to 10 wt %)) | ∘ (Easily soluble (10 wt % or more)) |  | 92.40 | No |  |  |  |  |  | ∘ |  |
| C=Cc1ccc(S(=O)(=O)O)cc1.CCCCCCCCN [MOASS, parastyrenesulfonic acid n-monooctylamine salt, reference compound] |  |  |  |  |  |  | 92.20 | No |  |  |  |  |  |  | did not have sufficient solubility |
